# Data reported in ChEMBL document CHEMBL1201862, “PubChem BioAssay data set” (2004).
# Activity calls are given as the source filed them.
# What was measured:
# ORF 73 = biological target: T1, ORF 73 (Human herpesvirus 8, UniProt O40947); test: inhibitors of C-LANA binding to LBS DNA, dose response, biochemical, fluorescence polarization, cherry-picked samples (AID 504725); set-up: species or system Human gammaherpesvirus 8;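 also: fluorescence polarization of a labeled DNA duplex reporting LANA DNA binding; potency is for inhibitors that block LANA binding to the DNA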
# T1 sequence (O40947 whole entry): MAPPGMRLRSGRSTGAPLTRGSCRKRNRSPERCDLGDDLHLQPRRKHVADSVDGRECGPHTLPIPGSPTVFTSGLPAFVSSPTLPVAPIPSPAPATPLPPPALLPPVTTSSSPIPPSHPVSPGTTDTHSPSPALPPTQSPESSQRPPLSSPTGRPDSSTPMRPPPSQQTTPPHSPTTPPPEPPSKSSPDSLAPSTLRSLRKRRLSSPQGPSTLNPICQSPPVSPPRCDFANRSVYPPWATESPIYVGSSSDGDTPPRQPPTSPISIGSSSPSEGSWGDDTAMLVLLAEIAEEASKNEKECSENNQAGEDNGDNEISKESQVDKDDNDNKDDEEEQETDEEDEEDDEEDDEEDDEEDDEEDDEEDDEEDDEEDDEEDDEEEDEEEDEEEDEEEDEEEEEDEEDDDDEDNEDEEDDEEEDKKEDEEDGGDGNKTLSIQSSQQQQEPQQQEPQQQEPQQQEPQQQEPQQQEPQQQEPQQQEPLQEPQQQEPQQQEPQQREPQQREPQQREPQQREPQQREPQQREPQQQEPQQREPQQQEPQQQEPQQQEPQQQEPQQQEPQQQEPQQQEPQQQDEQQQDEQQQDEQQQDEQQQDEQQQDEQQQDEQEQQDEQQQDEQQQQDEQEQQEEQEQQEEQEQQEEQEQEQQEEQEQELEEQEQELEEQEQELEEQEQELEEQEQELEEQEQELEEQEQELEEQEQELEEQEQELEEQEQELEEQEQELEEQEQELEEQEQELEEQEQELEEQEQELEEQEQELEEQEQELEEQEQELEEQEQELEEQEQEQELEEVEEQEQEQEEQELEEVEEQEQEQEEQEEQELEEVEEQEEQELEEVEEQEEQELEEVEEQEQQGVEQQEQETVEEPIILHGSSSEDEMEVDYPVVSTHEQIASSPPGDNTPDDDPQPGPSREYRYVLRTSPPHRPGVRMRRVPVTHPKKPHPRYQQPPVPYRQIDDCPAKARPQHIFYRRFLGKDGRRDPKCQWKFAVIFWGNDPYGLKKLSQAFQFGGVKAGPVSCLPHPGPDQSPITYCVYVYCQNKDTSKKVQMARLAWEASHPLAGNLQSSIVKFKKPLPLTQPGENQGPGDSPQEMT
# [1] = biological target: T2, Corticotropin-releasing factor receptor 2/Corticotropin-releasing factor-binding protein (Homo sapiens, UniProt P24387+Q13324); test: activators of CRF receptor 2 with binding protein – uHTS hits, confirmation (AID 602473); format: functional; conditions: read-out: EC50_Mean
# T2 sequence (Q13324 whole entry): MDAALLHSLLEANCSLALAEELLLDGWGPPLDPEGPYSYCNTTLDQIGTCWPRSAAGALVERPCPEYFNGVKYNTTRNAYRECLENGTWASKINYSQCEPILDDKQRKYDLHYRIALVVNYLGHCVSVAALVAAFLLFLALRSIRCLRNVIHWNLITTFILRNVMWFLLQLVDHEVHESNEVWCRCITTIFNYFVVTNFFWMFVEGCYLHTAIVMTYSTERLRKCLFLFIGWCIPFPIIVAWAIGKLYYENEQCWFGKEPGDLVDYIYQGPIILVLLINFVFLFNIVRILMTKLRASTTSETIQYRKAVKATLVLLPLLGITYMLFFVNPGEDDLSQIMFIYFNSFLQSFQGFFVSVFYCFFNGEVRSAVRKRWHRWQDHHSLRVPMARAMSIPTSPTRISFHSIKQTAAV
# T2 sequence (P24387 whole entry): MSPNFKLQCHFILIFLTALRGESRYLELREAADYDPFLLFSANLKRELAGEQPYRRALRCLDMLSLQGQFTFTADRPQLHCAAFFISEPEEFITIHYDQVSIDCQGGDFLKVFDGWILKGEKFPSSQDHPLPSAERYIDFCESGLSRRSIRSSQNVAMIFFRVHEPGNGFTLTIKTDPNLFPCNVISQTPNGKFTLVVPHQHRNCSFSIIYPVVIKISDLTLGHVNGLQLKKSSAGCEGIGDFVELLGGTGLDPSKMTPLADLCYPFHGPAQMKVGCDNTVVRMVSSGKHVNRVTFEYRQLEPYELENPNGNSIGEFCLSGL
# Keap1/Nrf2 = Keap1/Nrf2 (Homo sapiens, UniProt Q14145); test: Keap1-Nrf2 protein-protein interaction inhibitors, dose response, biochemical, fluorescence polarization, cherry-picked samples (AID 588683)
# Salmon testes DNA = test: DNA intercalators displacing acridine orange, dose response, artefact control for KSHV LANA DNA-binding inhibitor project, biochemical, fluorescence polarization, cherry-picked samples, set 2 (AID 504727); set-up: species or system Salmonidae
# Genome polyprotein = Genome polyprotein (dengue virus type 2, UniProt P29990); test: Dengue-2 NS5 methyltransferase inhibitors, primary screen, biochemical, confirmation dose response (AID 588689); format: functional
# Protein RecA = biological target: T3, Protein RecA (Mycobacterium tuberculosis, UniProt P9WHJ3); test: Fluorescence Cell-Free Homogeneous Dose Retest to Identify Inhibitors of RecA-Intein Splicing Activity. [Related pubchem assays (depositor defined):AID2097, AID2223, AID489010, AID492950]; format: functional
# T3 sequence (P9WHJ3 whole entry): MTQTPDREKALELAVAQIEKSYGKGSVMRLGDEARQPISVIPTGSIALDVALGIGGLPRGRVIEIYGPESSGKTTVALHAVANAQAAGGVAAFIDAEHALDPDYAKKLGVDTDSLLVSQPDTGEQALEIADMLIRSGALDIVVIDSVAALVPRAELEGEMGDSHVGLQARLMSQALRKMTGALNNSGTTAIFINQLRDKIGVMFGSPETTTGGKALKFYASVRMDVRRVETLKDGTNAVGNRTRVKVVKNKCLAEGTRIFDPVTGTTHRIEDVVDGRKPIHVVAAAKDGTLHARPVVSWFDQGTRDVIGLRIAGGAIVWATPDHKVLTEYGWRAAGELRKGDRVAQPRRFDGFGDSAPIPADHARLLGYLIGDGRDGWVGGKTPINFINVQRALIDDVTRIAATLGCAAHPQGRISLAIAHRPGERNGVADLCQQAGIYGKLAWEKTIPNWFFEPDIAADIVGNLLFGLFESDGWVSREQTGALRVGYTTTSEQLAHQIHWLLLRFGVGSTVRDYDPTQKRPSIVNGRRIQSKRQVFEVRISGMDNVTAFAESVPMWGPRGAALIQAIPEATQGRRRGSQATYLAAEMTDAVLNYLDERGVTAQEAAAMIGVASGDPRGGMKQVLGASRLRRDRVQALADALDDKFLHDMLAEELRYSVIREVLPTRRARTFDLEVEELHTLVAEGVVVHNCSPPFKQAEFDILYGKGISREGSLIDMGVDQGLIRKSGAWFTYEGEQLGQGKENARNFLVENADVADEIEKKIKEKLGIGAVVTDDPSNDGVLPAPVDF
# [2] = biological target: T4, Replicative DNA helicase DnaB (Mycobacterium tuberculosis, UniProt P9WMR3); test: DnaB intein splicing inhibitors, dose response, biochemical, cell-free fluorescence (AID 449749); format: functional
# T4 sequence (P9WMR3 whole entry): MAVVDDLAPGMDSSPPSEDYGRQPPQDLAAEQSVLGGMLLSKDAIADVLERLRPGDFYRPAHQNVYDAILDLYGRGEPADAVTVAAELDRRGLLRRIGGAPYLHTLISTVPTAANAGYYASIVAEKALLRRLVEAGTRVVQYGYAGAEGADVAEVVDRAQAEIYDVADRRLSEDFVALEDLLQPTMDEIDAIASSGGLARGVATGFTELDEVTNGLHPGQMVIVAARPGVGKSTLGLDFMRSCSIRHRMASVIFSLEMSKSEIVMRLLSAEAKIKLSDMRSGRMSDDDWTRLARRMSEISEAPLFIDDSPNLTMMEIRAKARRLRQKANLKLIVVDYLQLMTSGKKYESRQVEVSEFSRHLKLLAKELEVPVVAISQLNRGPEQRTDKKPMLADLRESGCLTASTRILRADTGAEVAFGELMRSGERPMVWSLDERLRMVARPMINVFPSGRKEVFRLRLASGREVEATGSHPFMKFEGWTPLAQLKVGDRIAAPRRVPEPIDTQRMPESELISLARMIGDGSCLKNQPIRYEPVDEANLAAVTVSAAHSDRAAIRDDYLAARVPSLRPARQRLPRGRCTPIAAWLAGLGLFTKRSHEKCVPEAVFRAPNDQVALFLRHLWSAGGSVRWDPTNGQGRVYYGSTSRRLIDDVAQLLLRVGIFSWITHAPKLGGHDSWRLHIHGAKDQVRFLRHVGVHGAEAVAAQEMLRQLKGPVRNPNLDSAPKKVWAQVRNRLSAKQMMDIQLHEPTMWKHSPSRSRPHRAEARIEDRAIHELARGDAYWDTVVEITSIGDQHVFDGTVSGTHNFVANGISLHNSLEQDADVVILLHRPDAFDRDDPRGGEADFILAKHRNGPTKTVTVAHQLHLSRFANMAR
# [3] = inhibition of K1F phage lysis, E. coli UTI89, bacterial capsule biogenesis inhibitors, alamar blue (AID 488966); format: functional
# [4] = biological target: T5, Voltage-gated N-type calcium channel alpha-1B subunit/Amyloid beta A4 precursor protein-binding family A member 1 (Homo sapiens, UniProt Q00975+Q02410); test: disruptors of Mint-PDZ/N-type channel peptide interaction – biochemical, HTRF, set 2, SAR follow-up (AID 434980); format: functional
# [5] = biological target: T5, Voltage-gated N-type calcium channel alpha-1B subunit/Amyloid beta A4 precursor protein-binding family A member 1; test: disruptors of Mint-PDZ/N-type channel peptide interaction – biochemical, HTRF, SAR follow-up (AID 2489); format: functional
# Cytochrome P450 2C19 = Cytochrome P450 2C19 (Homo sapiens, UniProt P33261); test: Cytochrome panel assay with activity outcomes. Panel member name: p450-cyp2c19 Compounds with AC50 equal or less than 10 uM are considered active; format: functional
# cells = format: functional, cell-based; conditions: PPC-1
# [6] = cytotoxicity toward NIH3T3 fibroblasts, dose response, counter-screen, cell-based, ATP luminescence, mouse fibroblasts (AID 2010); format: functional;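 also: cells exposed to compound for about 90 hours before reading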
# MDA-MB-435 = test: cells; format: functional, cell-based; conditions: Homo sapiens
# [7] = growth suppression of PTEN-null colon cells, dose response, cell-based, HCT116 PTEN knockout (AID 1047); format: functional;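 also: HCT116 colon tumor cells with PTEN knocked out; cells exposed to compound for 60 hours before readout; potency for loss of cell viability measured by luminescence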
# Phosphomannomutase 2 = biological target: T6, Phosphomannomutase 2 (Homo sapiens, UniProt O15305); test: Counter screen SAR assay for PMM2 inhibitors via a fluorescence intensity assay. [Related pubchem assays (depositor defined):AID1545, AID1574]
# T6 sequence (O15305 whole entry): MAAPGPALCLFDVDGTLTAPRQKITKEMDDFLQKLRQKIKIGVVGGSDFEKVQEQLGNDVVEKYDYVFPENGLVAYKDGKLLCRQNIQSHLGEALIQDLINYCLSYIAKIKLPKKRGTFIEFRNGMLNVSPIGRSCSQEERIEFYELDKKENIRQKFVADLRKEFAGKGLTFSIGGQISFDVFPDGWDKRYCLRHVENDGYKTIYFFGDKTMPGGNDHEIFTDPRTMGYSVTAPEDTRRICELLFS
# [8] = growth suppression of beta-catenin-knockout colon cells, dose response, cell-based, HCT116, human colon tumor (AID 1045); format: functional;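 also: HCT116 colon tumor cells with beta catenin knocked out; cells exposed to compound for 60 hours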
# [9] = biological target: T7, Polyadenylate-binding protein 1 (Homo sapiens, UniProt P11940); test: PABP1 MLLE–PAM2 binding inhibitor potency, dose response, biochemical, fluorescence polarization, FITC-PAM2 peptide (AID 602259); format: functional; conditions: read-out: IC50_Mean
# [10] = biological target: Female germline-specific tumor suppressor gld-1 (Caenorhabditis elegans, UniProt Q17339); test: inhibitors of GLD-1 binding to TGE RNA, dose response, biochemical, fluorescence polarization, C. elegans (AID 2802);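 also: fluorescence polarization of labeled TGE RNA bound by purified gld-1 protein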
# Protein Rev = Protein Rev (Human immunodeficiency virus type 1 group M subtype B (isolate HXB2)(HIV-1), UniProt P04618); test: inhibitors of Rev binding to RRE RNA, dose response, biochemical, fluorescence polarization, HIV-1 (AID 434976); set-up: species or system Human immunodeficiency virus 1
# [11] = biological target: T7, Polyadenylate-binding protein 1; test: PABP1 MLLE–PAM2 interaction inhibitors, dose response, miRNA deadenylation inhibitor project, biochemical, fluorescence polarization, Cy5-PAM2 peptide, secondary (AID 602260); format: functional; conditions: read-out: IC50_Mean
# Prothrombin = Prothrombin (Bos taurus, UniProt P00735); test: thrombin inhibition, dose response, biochemical, fluorescence polarization, uHTS hits (AID 602369); format: functional
# [12] = biological target: 72 kDa type IV collagenase (Homo sapiens, UniProt P08253); test: Dose Response validation of uHTS RPN11 inhibitor hits using a MMP-2 Fluorescence assay.; format: functional
# [13] = biological target: 26S proteasome non-ATPase regulatory subunit 14 (Homo sapiens, UniProt O00487); test: inhibition of proteasome subunit RPN11 – biochemical, fluorescence polarization, uHTS hits, confirmation (AID 602368); format: functional
# X-box-binding protein 1 = X-box-binding protein 1 (Homo sapiens, UniProt P17861); format: functional, Cricetulus griseus;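 also: confirmatory dose-response counter-screen serving a CHOP assay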
# X-box-binding protein 1, sequence (P17861 whole entry): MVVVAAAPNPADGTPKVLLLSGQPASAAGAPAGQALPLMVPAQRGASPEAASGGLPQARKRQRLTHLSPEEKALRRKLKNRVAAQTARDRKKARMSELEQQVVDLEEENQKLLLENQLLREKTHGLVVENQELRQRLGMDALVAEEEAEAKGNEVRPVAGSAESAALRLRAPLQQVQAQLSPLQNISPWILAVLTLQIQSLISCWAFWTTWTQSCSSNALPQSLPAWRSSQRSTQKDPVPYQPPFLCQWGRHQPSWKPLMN
# T5 sequence (Q00975 whole entry): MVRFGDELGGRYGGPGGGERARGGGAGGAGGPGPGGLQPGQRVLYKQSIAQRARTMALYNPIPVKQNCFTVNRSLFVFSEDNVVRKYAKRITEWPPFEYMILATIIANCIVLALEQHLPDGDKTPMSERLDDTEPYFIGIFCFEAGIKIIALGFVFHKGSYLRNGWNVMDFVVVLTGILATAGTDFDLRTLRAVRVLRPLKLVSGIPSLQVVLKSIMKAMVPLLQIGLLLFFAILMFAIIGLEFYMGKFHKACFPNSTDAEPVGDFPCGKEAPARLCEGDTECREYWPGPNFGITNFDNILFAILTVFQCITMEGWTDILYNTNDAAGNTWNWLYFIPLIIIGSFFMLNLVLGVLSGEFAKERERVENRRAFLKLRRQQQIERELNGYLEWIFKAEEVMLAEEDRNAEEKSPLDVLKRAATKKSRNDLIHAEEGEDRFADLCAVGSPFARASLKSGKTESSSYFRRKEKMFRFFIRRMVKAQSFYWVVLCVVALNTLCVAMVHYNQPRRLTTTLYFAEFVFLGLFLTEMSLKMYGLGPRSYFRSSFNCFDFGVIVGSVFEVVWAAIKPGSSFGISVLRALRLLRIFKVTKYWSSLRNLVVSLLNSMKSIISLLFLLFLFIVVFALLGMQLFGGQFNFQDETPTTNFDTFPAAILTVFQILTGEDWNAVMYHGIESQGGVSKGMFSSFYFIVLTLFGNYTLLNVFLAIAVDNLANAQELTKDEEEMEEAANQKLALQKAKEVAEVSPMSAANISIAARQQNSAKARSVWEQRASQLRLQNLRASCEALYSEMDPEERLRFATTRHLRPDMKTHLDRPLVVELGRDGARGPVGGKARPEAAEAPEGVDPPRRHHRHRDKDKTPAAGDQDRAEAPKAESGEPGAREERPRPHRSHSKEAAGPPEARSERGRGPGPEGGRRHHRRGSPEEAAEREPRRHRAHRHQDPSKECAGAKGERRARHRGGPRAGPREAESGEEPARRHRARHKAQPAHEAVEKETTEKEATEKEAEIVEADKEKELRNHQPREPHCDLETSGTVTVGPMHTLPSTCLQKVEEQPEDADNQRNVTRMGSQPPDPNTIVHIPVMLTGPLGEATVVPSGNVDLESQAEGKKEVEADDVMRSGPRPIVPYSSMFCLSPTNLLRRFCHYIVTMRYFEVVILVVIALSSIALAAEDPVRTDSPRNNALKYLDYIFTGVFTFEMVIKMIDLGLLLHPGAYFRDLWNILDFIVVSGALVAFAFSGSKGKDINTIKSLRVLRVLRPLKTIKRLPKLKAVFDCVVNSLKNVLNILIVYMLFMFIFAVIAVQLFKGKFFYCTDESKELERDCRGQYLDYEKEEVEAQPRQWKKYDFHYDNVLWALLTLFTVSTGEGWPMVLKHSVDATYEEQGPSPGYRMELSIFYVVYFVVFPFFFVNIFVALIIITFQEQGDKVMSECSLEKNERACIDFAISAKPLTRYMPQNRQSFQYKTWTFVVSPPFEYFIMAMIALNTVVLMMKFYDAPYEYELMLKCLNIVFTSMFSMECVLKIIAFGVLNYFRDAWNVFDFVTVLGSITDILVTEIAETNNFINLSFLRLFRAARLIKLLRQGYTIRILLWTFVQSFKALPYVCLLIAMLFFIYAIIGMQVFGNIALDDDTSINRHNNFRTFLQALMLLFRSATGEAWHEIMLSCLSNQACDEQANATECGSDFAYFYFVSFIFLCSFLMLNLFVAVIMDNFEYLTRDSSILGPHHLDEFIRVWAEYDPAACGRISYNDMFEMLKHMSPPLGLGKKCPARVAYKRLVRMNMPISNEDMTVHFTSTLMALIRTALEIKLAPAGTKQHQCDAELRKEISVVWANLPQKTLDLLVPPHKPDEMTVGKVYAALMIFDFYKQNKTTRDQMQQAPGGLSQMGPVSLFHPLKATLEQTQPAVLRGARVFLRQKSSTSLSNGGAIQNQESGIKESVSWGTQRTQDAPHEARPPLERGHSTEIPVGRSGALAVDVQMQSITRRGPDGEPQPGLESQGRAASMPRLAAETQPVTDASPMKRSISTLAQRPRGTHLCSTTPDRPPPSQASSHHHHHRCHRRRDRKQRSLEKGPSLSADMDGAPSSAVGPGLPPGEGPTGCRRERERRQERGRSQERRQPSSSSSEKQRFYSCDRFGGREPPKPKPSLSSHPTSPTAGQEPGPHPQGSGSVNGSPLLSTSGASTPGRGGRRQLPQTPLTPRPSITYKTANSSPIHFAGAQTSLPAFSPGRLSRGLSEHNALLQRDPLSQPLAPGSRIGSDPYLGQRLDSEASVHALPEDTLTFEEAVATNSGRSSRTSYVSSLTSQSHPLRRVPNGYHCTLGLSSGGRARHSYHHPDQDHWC
# T5 sequence (Q02410 whole entry): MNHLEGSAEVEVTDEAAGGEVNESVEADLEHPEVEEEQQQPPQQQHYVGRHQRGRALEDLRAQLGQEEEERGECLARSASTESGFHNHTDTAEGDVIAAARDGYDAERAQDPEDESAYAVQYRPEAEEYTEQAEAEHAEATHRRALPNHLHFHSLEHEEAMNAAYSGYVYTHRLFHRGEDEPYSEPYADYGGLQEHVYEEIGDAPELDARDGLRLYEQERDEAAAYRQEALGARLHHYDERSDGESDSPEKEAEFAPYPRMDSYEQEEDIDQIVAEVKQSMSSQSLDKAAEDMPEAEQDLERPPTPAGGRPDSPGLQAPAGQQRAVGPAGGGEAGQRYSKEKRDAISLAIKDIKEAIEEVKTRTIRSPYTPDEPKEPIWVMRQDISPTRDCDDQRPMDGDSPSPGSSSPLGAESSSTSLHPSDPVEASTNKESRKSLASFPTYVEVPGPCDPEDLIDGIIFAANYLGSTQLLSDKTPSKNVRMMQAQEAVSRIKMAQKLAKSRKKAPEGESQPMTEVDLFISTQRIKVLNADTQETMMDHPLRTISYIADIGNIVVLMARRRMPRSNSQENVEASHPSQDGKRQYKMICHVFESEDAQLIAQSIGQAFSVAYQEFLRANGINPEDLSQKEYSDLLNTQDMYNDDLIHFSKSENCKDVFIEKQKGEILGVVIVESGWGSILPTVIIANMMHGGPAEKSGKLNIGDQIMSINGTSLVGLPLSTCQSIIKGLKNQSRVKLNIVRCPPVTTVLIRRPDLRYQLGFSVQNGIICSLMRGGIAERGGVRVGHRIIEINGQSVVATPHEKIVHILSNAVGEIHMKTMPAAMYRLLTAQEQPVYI
# T7 sequence (P11940 whole entry): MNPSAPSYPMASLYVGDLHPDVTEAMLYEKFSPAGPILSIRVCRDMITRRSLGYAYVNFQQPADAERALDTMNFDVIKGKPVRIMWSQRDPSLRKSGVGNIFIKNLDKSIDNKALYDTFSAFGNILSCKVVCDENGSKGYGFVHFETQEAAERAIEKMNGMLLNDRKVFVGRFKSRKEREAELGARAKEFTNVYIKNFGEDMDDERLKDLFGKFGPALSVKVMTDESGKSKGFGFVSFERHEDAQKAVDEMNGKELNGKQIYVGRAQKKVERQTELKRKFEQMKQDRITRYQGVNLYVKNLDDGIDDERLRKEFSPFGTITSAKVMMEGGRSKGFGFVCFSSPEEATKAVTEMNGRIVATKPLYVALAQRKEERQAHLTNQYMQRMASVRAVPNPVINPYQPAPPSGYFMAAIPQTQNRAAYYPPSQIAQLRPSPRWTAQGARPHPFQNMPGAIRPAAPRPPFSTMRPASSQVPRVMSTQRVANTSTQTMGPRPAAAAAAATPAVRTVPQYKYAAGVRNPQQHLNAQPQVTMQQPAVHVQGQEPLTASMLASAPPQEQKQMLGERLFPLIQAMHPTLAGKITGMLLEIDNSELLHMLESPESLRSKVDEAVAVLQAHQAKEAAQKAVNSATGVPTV
# Cytochrome P450 2C19, sequence (P33261 whole entry): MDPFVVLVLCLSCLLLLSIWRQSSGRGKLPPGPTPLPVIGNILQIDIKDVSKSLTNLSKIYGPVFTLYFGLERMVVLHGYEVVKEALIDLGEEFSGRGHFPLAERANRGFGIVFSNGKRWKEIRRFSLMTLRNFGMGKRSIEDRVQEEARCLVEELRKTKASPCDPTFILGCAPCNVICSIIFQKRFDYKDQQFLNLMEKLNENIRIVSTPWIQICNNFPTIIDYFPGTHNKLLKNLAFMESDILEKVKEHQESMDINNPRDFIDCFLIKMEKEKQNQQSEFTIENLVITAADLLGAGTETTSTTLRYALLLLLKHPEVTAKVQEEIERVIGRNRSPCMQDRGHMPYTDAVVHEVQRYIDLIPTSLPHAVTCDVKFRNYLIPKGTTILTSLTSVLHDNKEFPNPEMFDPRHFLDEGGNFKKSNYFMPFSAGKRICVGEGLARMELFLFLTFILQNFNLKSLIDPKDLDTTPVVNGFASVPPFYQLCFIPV
# Protein Rev, sequence (P04618 whole entry): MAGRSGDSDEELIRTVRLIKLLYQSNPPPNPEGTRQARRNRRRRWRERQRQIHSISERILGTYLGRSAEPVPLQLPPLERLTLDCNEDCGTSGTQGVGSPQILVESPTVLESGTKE
# 26S proteasome non-ATPase regulatory subunit 14, sequence (O00487 whole entry): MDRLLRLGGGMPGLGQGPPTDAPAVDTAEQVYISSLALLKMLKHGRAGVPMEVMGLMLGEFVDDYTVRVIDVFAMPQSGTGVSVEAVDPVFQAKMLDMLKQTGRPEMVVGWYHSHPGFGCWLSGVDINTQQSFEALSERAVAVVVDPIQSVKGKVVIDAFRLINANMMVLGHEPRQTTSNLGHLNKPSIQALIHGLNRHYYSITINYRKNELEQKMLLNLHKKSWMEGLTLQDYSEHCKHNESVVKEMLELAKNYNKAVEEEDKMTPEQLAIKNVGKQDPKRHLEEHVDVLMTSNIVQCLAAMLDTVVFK
structure (smiles),measurement,setting,value
Cc1ccccc1N1C(=O)c2cccc3c(N(C)CCO)ccc(c23)C1=O,AC50,ORF 73,172 µM (active)
same,EC50,[1],5.5 µM (active)
same,AC50,Keap1/Nrf2,> 52 µM (inactive)
same,AC50,Salmon testes DNA,68.4 µM (active)
N=C1/C(=C\c2ccc(OC(=O)c3ccc(F)cc3)cc2)C(=O)N=C2SC(N3CCOCC3)=NN12,IC50,Genome polyprotein,19.2 µM (active)
same,EC50,Protein RecA,17.1 µM (active)
same,AC50,[2],22.4 µM (active)
same,IC50,[3],> 75 µM (active)
O=C(c1cc(-c2ccco2)nc2ccccc12)N1CCN(c2ccccc2)CC1,IC50,[4],> 56.8 µM (inactive)
same,IC50,[5],> 56.8 µM (inactive)
CSc1nc(-c2ccc(C)cc2)nc(C(Cl)Cl)n1,AC50,Cytochrome P450 2C19; read-out: AC50,0.398 µM (inconclusive)
same,IC50,cells,> 10 µM (inactive)
same,EC50,[6],> 60 µM (inconclusive)
same,IC50,MDA-MB-435,> 10 µM (inactive)
same,EC50,[7],0.824 µM (active)
same,IC50,Phosphomannomutase 2,> 100 µM (inactive)
same,EC50,[8],0.714 µM (active)
O=c1nc2[nH]c3ccccc3nc-2c(=O)[nH]1 [ALLOXAZINE],IC50,[9],35.8 µM (inactive)
same,AC50,Cytochrome P450 2C19,inconclusive
same,IC50,[10],1.47 µM (active)
same,IC50,Protein Rev,12.4 µM (not active)
same,IC50,[11],> 66 µM (inactive)
Cc1cccc(OCc2nnc(SCc3nc(O)c4ccc(C(F)(F)F)cc4n3)o2)c1,IC50,Prothrombin,29.7 µM (active)
same,IC50,[12],> 100 µM (inactive)
same,IC50,[13],21.5 µM (active)
same,Absolute IC50 (XBP1),X-box-binding protein 1,10 µM
